Source: US20100256207A1, “AMORPHOUS OLMESARTAN MEDOXOMIL” (priority 2007, published 2010)
Entries after “also recorded” stand apart in the source; their conditions may differ.

Assays:
[1] = cited from earlier work
[2] = Thermo-Gravimetric Analysis (TGA): water content / hygroscopicity; type: physicochemical
Method: The powder obtained by the process according to the invention as described above and in the following examples was also subjected to Thermo-Gravimetric Analysis (TGA).
The water content was determined by weight loss in the TGA data at 25-105° C.
The TGA analysis data was obtained using a Mettler-Toledo TGA851e apparatus under the following parameters:
(§1) Temperature profile: 25-300° C.@5° C./min
(§2) Nitrogen purge gas, 50 ml/min
(§3) Aluminium pan, […], pierced prior to scan

[3] = type: physicochemical
Method: The powder obtained by the process according to the invention as described above and in the following examples was also subjected to Differential Scanning Calorimetry (DSC). It will be apparent to one skilled in the art that the exothermic event at 100-140° C. is a heating-induced recrystallisation of the amorphous form to the crystalline prior art form. This is confirmed by XRPD data and confirms that the chemical entity of the initial amorphous material does represent olmesartan medoxomil. Further, it also confirms that the amorphous olmesartan medoxomil according to the above described embodiments of the invention is sufficiently kinetically stable or metastable, as no conversion to other polymorphic forms occurs below 100° C.
The DSC thermal analysis data was obtained using a Mettler-Toledo DSC821e apparatus under the following parameters:
as §1, §2, §3

| Compound | aqueous solubility [1] | hygroscopicity [2] | water content ([2]; weight loss in the TGA data at 25-105° C.) | kinetic stability: temperature below which no conversion to other polymorphic forms occurs [3] [°C] | exothermic event: heating-induced recrystallisation of the amorphous form to the crystalline prior art form ([3]; DSC, 25-300° C. at 5° C./min, nitrogen purge, confirmed by XRPD) |
| --- | --- | --- | --- | --- | --- |
| CCCc1nc(C(C)(C)O)c(C(=O)OCc2oc(=O)oc2C)n1Cc1ccc(-c2ccccc2-c2nnn[nH]2)cc1 [Olmesartan medoxomil, 2,3-dihydroxy-2-butenyl 4-(1-hydroxy-1-methylethyl)-2-propyl-1-[p-(o-tetrazol-5-yl-phenyl)benzyl]imidazole-5-carboxylate cyclic 2,3-carbonate] | very low |  |  |  |  |
| CCCc1nc(C(C)(C)O)c(C(=O)OCc2oc(=O)oc2C)n1Cc1ccc(-c2ccccc2-c2nnn[nH]2)cc1 [amorphous olmesartan medoxomil, 2,3-dihydroxy-2-butenyl 4-(1-hydroxy-1-methylethyl)-2-propyl-1-[p-(o-tetrazol-5-yl-phenyl)benzyl]imidazole-5-carboxylate cyclic 2,3-carbonate] |  | surprisingly low hygroscopicity; also recorded: substantially non-hygroscopic | less than 2 % by weight | ≥ 100 | 100-140 °C |
